# Paper PMC9501356, “New Sulfamethoxazole Derivatives as Selective Carbonic Anhydrase IX and XII Inhibitors: Design, Synthesis, Cytotoxic Activity and Molecular Modeling” (Pharmaceuticals, 2022)
# Read-outs that look alike come from different tables or passages of the source.
# Experiments:
# [1] = target: T1, recombinant Human Carbonic Anhydrase XII (Homo sapiens, UniProt O43570); assay: hCA XII inhibitory assay (4-nitrophenyl acetate esterase); format: biochemical; settings: average ± SEM, three independent experiments; read-out: Carbonic Anhydrase (IC50, nM) CA-XII
# T1 construct: purchased R and D system (MN, USA)
# Procedure: mixture was incubated for 30 min at room temperature and the absorbance […]
# (§1) S2.2.3. hCAXII inhibitory assay
# (§2) Carbonic Anhydrase (CA) catalyzes the reversible reaction of CO2 +
# H2O = HCO3- + H+. Carbonic Anhydrase I (CAI) was measured following the manufacturer’s instruction. In brief, recombinant Human […]
# (§3) mM Tris, 75 mM NaCl, pH 7.5). The substrate (4-Nitrophenyl acetate, 4NPA, 100 mM stock in acetone) was diluted in 2 mM in assay buffer. The reaction was started by adding 50 µL of 2 mM substrate with 50 µL of 20 ng/µL rhCAXII in 96 well plate. Substrate blank containing 50 µL of assay buffer and 50 µL of substrate was included. The kinetics for 5 min of the reaction mixtures were measured at wavelength of 400 nm[40] and the activity was calculated using the following equation:
# Specific Activity (pmol/min/µg) = Adjusted Vmax (OD/ mi n) x Conver sion Factor (pmol /OD) amount of enzyme (µg) S2.2.4. CA1 inhibitory assay
# (§4) Carbonic Anhydrase (CA) cataly zes the reversible reaction of CO2 + H2O = HCO3- + H+. Carbonic Anhydrase I (CAI) was measured following the […]
# Tris, 75 mM NaCl, pH 7.5). The substrate (4-Nitroph enyl acetate, 4NPA, 100 mM stock in acetone) was diluted in 2 mM in assay buffer. The reaction was started by adding 50 µL of 2 mM substrate with 50 µL of 100 ng/µL rhCAI in 96 well plate. […]
# (§5) 400 nm[41] and the activity was calculated using the following equation: […]
# [2] = target: T2, recombinant Human Carbonic Anhydrase I (Homo sapiens, UniProt P00915); assay: CA1 inhibitory assay (4-nitrophenyl acetate esterase); format: biochemical; settings: average ± SEM, three independent experiments; read-out: Carbonic Anhydrase IC50 (uM) hCA I
# T2 construct: purchased R and D system (MN, USA)
# Procedure: The hCA I was assayed following the manufacturer’s instruction and reported method (Supplementary Material Section S2) (Table 2). […]
# as §2
# H2O = HCO3- + H+. Carbonic Anhydrase I (CAI) was measured following the manufacturer’s instruction. […]
# (§6) 400 nm[40] and the activity was calculated using the following equation: […]
# S2.2.4. CA1 inhibitory assay
# as §4
# Tris, 75 mM NaCl, pH 7.5). The substrate (4-Nitroph enyl acetate, 4NPA, 100 mM stock in acetone) was diluted in 2 mM in assay buffer. The reaction was started by adding 50 µL of 2 mM substrate with 50 µL of 100 ng/µL rhCAI in […]
# (§7) 96 well plate. […]
# as §5
# [3] = target: T3, hCA II (Homo sapiens, UniProt P00918); assay: CAII inhibitory assay (p-nitrophenyl acetate); format: biochemical; settings: average ± SEM, three independent experiments; read-out: Carbonic Anhydrase IC50 (uM) hCA II
# T3 construct: purchased BPS bioscience (CA, USA)
# Procedure: CAII was assayed following the manufacturer’s instruction and reported method (Supplementary Material Section S2) (Table 2). […]
# as §2
# (§8) H2O = HCO3- + H+. […]
# as §6
# = HCO3- + H+. […]
# as §7, §5
# S2.2.5. CAII inhibitory assay
# CAII was assayed following the manufacturer’s instruction. A amount
# of 1,400 pmol/min/µg assay mixture containing 100 mM NaCl, 15 mM Tris-
# [4] = MTT cytotoxicity assay on MCF10a; format: cell-based; settings: human, MCF10a normal breast cells, MCF10a normal breast cell line
# Procedure: (§9) Suppling, specification and incubation of MCF7 and MCF10a cell lines were carried out according to the method mentioned in detail in Supplementary Material Section S2.
# (§10) MTT assay is a method used for in vitro cytotoxicity of different compounds. The method details are illustrated in Supplementary Material Section S2. […]
# (§11) Carbonic Anhydrase (CA) catalyzes the reversible reaction of CO2 + […]
# as §8
# (§12) 400 nm[40] and the activity was calculated using the following equation: […] = HCO3- + H+. […]
# as §7, §5
# (§13) S2.2.6. Cell culture Protocol
# (§14) MCF7 and MCF10a cell lines were obtained from American Type
# (§15) Culture Collection, the cultured cells were grown using DMEM
# (§16) (Invitrogen/Life Technologies) in 10% fetal bovine serum (FBS), 10 μg/ml of insulin (Sigma), and 1% penicillin-streptomycin antibiotics. Other chemicals and reag ents were from ob tained f rom S igma or In vitrogen. Cells d en sity was 1.2 – 1.8 × 10^3 cells/well in a volume of 100 µl complete growth medium + 100 μl of the tested compound/well in a 96-well plate for 24 hours performing […]
# (§17) assay. After treatment of cells with the serial concentrations of the tested compounds, incubation for 48 h at 37 °C is carried out.
# (§18) S2.2.7. MTT – Cytotoxicity assay protocol
# (§19) MTT assay is a method used for in vitro cytotoxicity of different compounds. MTT vial was reconstituted in 3 ml growth media and diluted
# (§20) MTT in an amount equal to 10% of the culture medium volume. After 4hrs incubation of the reagent with the treated MCF7 and MCF10a cells, culture media was removed from incubator and dissolve the resulting formazan crystals by adding an amount of MTT solubilizing solution equal volume with the original culture medium.
# [5] = test system: MCF10a cells; assay: MTT cytotoxicity assay on MCF10a; format: cell-based; settings: MCF10a normal breast cell line
# Procedure: as §9, §10, §11, §8, §12, §7, §5, §13, §14, §15, §16, §17, §18, §19, §20
# [6] = test system: MCF7 cells; assay: MTT cytotoxicity assay on MCF7 (hypoxia and normoxia); format: cell-based; settings: Homo sapiens
# Procedure: as §9, §10, §11, §8, §12, §7, §5, §13, §14, §15, §16, §17, §18
# MTT assay is a method used for in vitro cytotoxicity of different compounds. […]
# [7] = target: T4, hCA IX (Homo sapiens, UniProt Q16790); assay: hCA IX inhibitory assay; format: biochemical; settings: average ± SEM, three independent experiments; read-out: Carbonic Anhydrase (IC50, nM) CA-IX
# T4 construct: purchased BPS bioscience (CA, USA)
# Procedure: The hCA IX was assayed following the manufacturer’s instruction and reported method. (Table 1, Figure 3A,B) (Supplementary Material Section S2). […]
# mixture was incubated for 30 min at room temperature and the absorbance was measured at 405nm.
# as §1, §2
# H2O = HCO3- + H+. Carbonic Anhydrase I (CAI) was measured following the manufacturer’s instruction. In brief, recombinant Human
# as §3, with “Carbonic Anhydrase XII (rh CAXII) was diluted to […] in assay buffer (12.5 mM Tris,” for “mM Tris,”, “following equation: […]” for “following equation:”
# as §4, §5
# CAII was assayed following the manufacturer’s instruction. […] Incubate for 30 min at RT and the resulted absorbance was measured at 405 nm. […]
# T2 sequence (P00915 whole entry): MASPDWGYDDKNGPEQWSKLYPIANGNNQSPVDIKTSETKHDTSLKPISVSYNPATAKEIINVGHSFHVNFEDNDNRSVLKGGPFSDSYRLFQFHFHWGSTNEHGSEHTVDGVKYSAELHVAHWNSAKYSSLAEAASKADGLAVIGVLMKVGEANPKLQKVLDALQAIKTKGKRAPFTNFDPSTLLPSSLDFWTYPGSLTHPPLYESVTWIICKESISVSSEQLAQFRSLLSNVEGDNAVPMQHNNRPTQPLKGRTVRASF
# T1 sequence (O43570 25-354): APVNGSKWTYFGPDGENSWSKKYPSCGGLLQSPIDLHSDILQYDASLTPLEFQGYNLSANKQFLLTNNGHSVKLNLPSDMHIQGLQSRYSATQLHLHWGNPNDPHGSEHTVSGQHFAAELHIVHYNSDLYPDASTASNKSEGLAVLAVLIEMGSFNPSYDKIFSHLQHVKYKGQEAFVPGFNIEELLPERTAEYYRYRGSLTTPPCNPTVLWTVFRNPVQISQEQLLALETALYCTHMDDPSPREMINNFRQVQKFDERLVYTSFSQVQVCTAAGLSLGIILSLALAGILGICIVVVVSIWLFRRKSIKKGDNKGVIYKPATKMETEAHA
IC50 [1],IC50 [2],IC50 [3],IC50 [7],SMILES,IC50 at 48 h [4],Cytotoxicity (IC50 µg/mL) MCF10a [5],"IC50 ([6]; MCF7, MCF7, hypoxia, read-out: Cytotoxicity (IC50 µg/mL) MCF7 Hypoxia)","IC50 ([6]; MCF7, MCF7, normoxia, read-out: Cytotoxicity (IC50 µg/mL) MCF7 Normoxia)"
0.9 nM,–,–,–,"Cc1ccc(/C=C2\SC(Nc3ccc(S(=O)(=O)Nc4cc(C)on4)cc3)=NC2=O)cc1 [S19, (Z)-4-((5-(4-Methylbenzylidene)-4-oxo-4,5-dihydrothiazol-2-yl)amino)-N-(5-methylisoxazol-3-yl)benzenesulfonamide]",–,–,–,–
–,0.121 ± 0.006 µM,0.543 ± 0.03 µM,–,"Cc1cc(NS(=O)(=O)c2ccc(NC(=O)c3ccc(Cl)cc3)cc2)no1 [S9, 4-Chloro-N-(4-(N-(5-methylisoxazol-3-yl)sulfamoyl)phenyl)benzamide]",34.7 ± 1.87 µg/mL,46.72 ± 2.52 µg/mL,–,–
–,1.02 ± 0.049 µM,1.85 ± 0.12 µM,–,"Cc1ccc(C(=O)Nc2ccc(S(=O)(=O)Nc3cc(C)on3)cc2)cc1 [S8, 4-Methyl-N-(4-(N-(5-methylisoxazol-3-yl)sulfamoyl)phenyl)benzamide]",31.6 ± 1.71 µg/mL,–,3.64 ± 0.2 µg/mL,7.68 ± 0.41 µg/mL
–,0.177 ± 0.008 µM,0.102 ± 0.006 µM,–,"C=CCN(c1cc(C)on1)S(=O)(=O)c1ccc(N)cc1 [S2, N-Allyl-4-amino-N-(5-methylisoxazol-3-yl)benzenesulfonamide]",–,–,–,–
–,0.08 ± 0.003 µM,0.199 ± 0.011 µM,0.042 nM,"CCCN(c1cc(C)on1)S(=O)(=O)c1ccc(N)cc1 [S3, 4-Amino-N-(5-methylisoxazol-3-yl)-N-propylbenzenesulfonamide]",–,–,–,–
